In PubChem BioAssay AID489024 (Sanford-Burnham Center for Chemical Genomics, 2010):
Activity calls are given as the source filed them.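 Rule for the calls: active = compounds whose mean EC50, the dose giving half the maximal reporter activation, is at or below a set limit; inactive = the rest.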

Each compound was assayed against CHO-CHOP luciferase reporter, UPR activation, luminescence (assay: CHOP reporter induction, apoptotic UPR branch – CHO-CHOP cells, luciferase luminescence, confirmation (AID 489024);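 note: compounds added alone to reporter cells with no tunicamycin stress co-treatment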).
`Cc1c(C(=O)c2cccc3ccccc23)c2cccc3c2n1[C@H](CN1CCOCC1)CO3` was tested, and the EC50 was 12.4 µM.
With `CCOC(=O)N1CCN(Cc2ccc(O)c3ncccc23)CC1` the EC50 was 16.4 µM.
For `Cc1[nH]c2ccccc2c1CN1CCC(Cc2ccccc2)CC1`, the EC50 was 11.1 µM.
`COc1ccc(NS(=O)(=O)c2ccc3ccccc3c2)c2ncccc12` was tested, and the EC50 was 9.28 µM.
In the case of `CCN1CSC(=S)N(Cc2ccccc2)C1`, the EC50 is reported as 8.48 µM.
In the case of `CCSC1(SCC)N=C(N)C2(C#N)C(c3ccc(F)cc3)C12C#N` (stereo unspecified), the EC50 is reported as 11 µM.
Compound `Cc1[nH]c2c(C)cccc2c1CCNC(=O)c1ccc2c(c1[N+](=O)[O-])C(=O)c1ccccc1C2=O` has an EC50 of 6.46 µM.
With `Cc1ccc(/C=C/C(=O)c2ccc([N+](=O)[O-])o2)cc1` the EC50 was 6.46 µM.
Compound `CN(C)CC(C(=O)c1ccccc1)c1ccccc1` (stereo unspecified) has an EC50 of 6.77 µM.
In the case of `O=C(C[C@H]1C[C@H](C(=O)N2CCCCC2)[C@@]2(CCc3ccccc3)c3[nH]c4ccc(Cl)cc4c3CCN2C1=O)NCCC1=CCCCC1`, the EC50 is reported as “inactive”.
`C[C@@H]1CN([C@H](C)CO)C(=O)c2cc(NC(=O)Nc3ccc(C(F)(F)F)cc3)ccc2O[C@H]1CN(C)Cc1ccc(Cl)c(Cl)c1` was tested, and the EC50 was > 80 µM (inactive).
For `COC(=O)c1ccc(C(=O)OC)c(NC(=O)CSc2cccc[n+]2[O-])c1`, the EC50 was “inactive”.
In the case of `O=C(N/N=C/c1ccccn1)c1cc(-c2ccc(Br)cc2)nc2ccccc12`, the EC50 is reported as 2.4 µM.
`CC(C)c1ccc(N2C(=O)NC(=O)/C(=C\C=C\c3ccco3)C2=O)cc1` showed an EC50 of 9.13 µM.
In the case of `CS(=O)(=O)c1nc(-c2ccc(Br)cc2)cc(-c2ccccc2)c1C#N`, the EC50 is reported as 5.12 µM.
Compound `CCc1ccc2nc(N(CCCN(C)C)C(=O)c3ccc(S(=O)(=O)N4CCc5ccccc5C4)cc3)sc2c1` has an EC50 of 7.12 µM.
`COc1ccc(/C=C/c2nc3cc(-c4ccccc4)ccc3o2)cc1O` showed an EC50 of 12.7 µM.
Compound `S=C(Nc1ccccc1)Nc1nccs1` has an EC50 of 17.5 µM.
Work on `Cc1cccc(-n2ncc(Cl)c(Cl)c2=O)c1` yielded an EC50 of 7.81 µM.
`Cc1ccc(C)c2sc(N3CCN(C(=O)c4ccc([N+](=O)[O-])o4)CC3)nc12` gave an EC50 of 18.9 µM.
`CC1=C(CC/C(C)=N/NC(N)=S)C(C)(C)CCC1` was tested, and the EC50 was 19.8 µM.
With `Cc1ccccc1S(=O)(=O)NC1OC(=O)C(Cl)=C1Cl` (stereo unspecified) the EC50 was > 80 µM (inactive).
Compound `COCc1ccc(O)c2ncccc12` has an EC50 of 15.1 µM.
`N#Cc1cc([N+](=O)[O-])c(-n2nnc3ccccc32)c([N+](=O)[O-])c1` was tested, and the EC50 was 18.5 µM.
With `Cc1cnc(NC(=O)c2cc(S(=O)(=O)N(C)C)ccc2N2CCCC2)s1` the EC50 was 6.42 µM.
For `O=c1cc(C(Cl)(Cl)Cl)oc2c1ccc1ccccc12`, the EC50 was > 80 µM (inactive).
For `Cc1nc(SCC(=O)Nc2ccc(F)cc2)c(C#N)c(C)c1CC(=O)c1ccc(Br)cc1`, the EC50 was > 80 µM (inactive).
`Cc1nc([N+](=O)[O-])c(Br)n1CC(=O)c1ccc(Br)cc1` was tested, and the EC50 was > 80 µM (inactive).
With `O=C(NC1CCCC1)C(c1ccc(F)cc1)N(Cc1ccc(F)cc1)C(=O)CCl` (stereo unspecified) the EC50 was 9.26 µM.
`CCOC(=O)C(=Cc1ccc(-n2cncn2)cc1)C(=O)OCC` was tested, and the EC50 was 11.4 µM.
For `COc1ccc(-c2cc(=O)oc3c(C)c(OC(=O)c4cccs4)ccc23)cc1`, the EC50 was “inactive”.
Compound `C/C(=N\NC(=O)COc1ccccc1-c1ccccc1)c1ccccn1` has an EC50 of 6.49 µM.
For `O=C(CCl)Nc1cc(S(=O)(=O)N2CCCCCC2)ccc1Cl`, the EC50 was > 80 µM (inactive).
`COc1cc(CN2CCN(c3cc(C)ccc3C)CC2)ccc1O` was tested, and the EC50 was 11.7 µM.
With `O=[N+]([O-])c1ccc(Sc2cccc3cccnc23)c([N+](=O)[O-])c1` the EC50 was > 80 µM (inactive).
Work on `Cc1ccc2nc(-c3ccc(O)c(O)c3)cn2c1` yielded an EC50 of 3.6 µM.
For `O=S(=O)(Nc1cccc2cccnc12)c1ccc(S(=O)(=O)N2CCCC2)cc1`, the EC50 was 13.9 µM.
`N#CC(C#N)=C1C=CC=CN1/C(=C\c1ccccc1)C(=O)c1cccs1` was tested, and the EC50 was > 80 µM (inactive).
In the case of `COc1ccc2cc1Oc1ccc(cc1)CC1c3c(cc(OC)c4c3Oc3cc5c(cc3O4)CCNC5C2)CCN1C` (stereo unspecified), the EC50 is reported as > 80 µM (inactive).
`Cc1cc(N/N=C/c2ccccc2[N+](=O)[O-])nc(-n2nc(C)cc2C)n1` gave an EC50 of 7.44 µM.
With `CCCN1Cc2cccc(C(=O)Nc3ccc(-c4nc5ccccc5[nH]4)cc3)c2C1=O` the EC50 was > 80 µM (inactive).
Work on `COc1ccc(N=Nc2ccc(O)c3ncccc23)cc1` yielded an EC50 of 7.89 µM.
`COC(=O)C(=Cc1ccc(OCc2ccc([N+](=O)[O-])cc2)c(OC)c1)C(=O)OC` gave an EC50 of 5.43 µM.
Work on `O=C(/C(=C\c1ccccc1)c1nc2ccccc2[nH]1)c1ccc(Cl)cc1` yielded an EC50 of 8.43 µM.
Compound `CCOc1cc(C=C(C(=O)OC)C(=O)OC)ccc1OCc1ccc([N+](=O)[O-])cc1` has an EC50 of 6.82 µM.
`Cc1cc(C(=O)CCl)c(C)n1CCc1ccc(Cl)cc1` was tested, and the EC50 was 7.15 µM.
With `O=C1C(Cl)=C(NC(=O)c2ccccc2)C(=O)C(Cl)=C1NC(=O)c1ccccc1` the EC50 was > 80 µM (inactive).
In the case of `O=C1NN(c2cccc(Br)c2)C(=O)/C1=C/c1cccs1`, the EC50 is reported as “inactive”.
`O=C1NC(=S)NC(=O)C1=Cc1ccc(Br)s1` was tested, and the EC50 was > 80 µM (inactive).
With `COC(=O)Oc1ccc(/C=C/C(=O)OC(C)C)cc1OC(=O)OC` the EC50 was 14 µM.
`CCCn1c(CC)nc([N+](=O)[O-])c1S(=O)(=O)c1ccccc1` was tested, and the EC50 was > 80 µM (inactive).
For `O=C(NCc1ccccc1Br)c1cccc2c1C(=O)c1ccc(-c3ccc(OC(F)(F)F)cc3)cc1S2(=O)=O`, the EC50 was 12.7 µM.
`COc1ccc2cc(C)c3nnc(SCC(=O)Nc4nc(-c5ccc(F)cc5)cs4)n3c2c1` was tested, and the EC50 was 10.7 µM.
In the case of `CN1CSC(=S)N(C)C1`, the EC50 is reported as > 80 µM (inactive).
For `Cc1ccc(-c2nc(N/N=C/c3cccc([N+](=O)[O-])c3)c3ccccc3n2)cc1`, the EC50 was “inactive”.
`Cn1nnnc1Sc1ncnc2scc(-c3cc4ccccc4o3)c12` gave an EC50 of 9.26 µM.
In the case of `Cc1ccc(C)c(N=Cc2c(O)c3ccccc3oc2=O)c1`, the EC50 is reported as 6.28 µM.
In the case of `CCc1cccc(CC)c1NC(=O)/C(C#N)=C/c1ccccc1C(F)(F)F`, the EC50 is reported as > 80 µM (inactive).
`CCc1nnc(NC(=O)CSc2nc(-c3ccccc3)cc(-c3ccc(OC)cc3)c2C#N)s1` was tested, and the EC50 was 13 µM.
`CCN(CC)S(=O)(=O)c1ccc(N/N=C(\C)c2ccc3c(c2)OCO3)c([N+](=O)[O-])c1` was tested, and the EC50 was “inactive”.
`COc1ccc(/C=C/C(=O)c2ccc([N+](=O)[O-])o2)cc1` gave an EC50 of 6.65 µM.
Compound `O=C(Nc1ccc(-c2nc3ncccc3o2)cc1)c1ccc([N+](=O)[O-])o1` has an EC50 of 1.08 µM.
`CCOC(=O)C1=C(Cc2ccc(Cl)cc2)C(=O)c2ccccc2C1=O` was tested, and the EC50 was > 80 µM (inactive).
`C/C(=C\c1ccc(N(C)C)cc1)[N+](=O)[O-]` showed an EC50 of 9.76 µM.
`Cc1ccc(N2C(=O)NC(=O)/C(=C/C=C/c3ccco3)C2=O)cc1` gave an EC50 of 11.5 µM.
Compound `Cc1ccc2c(C(=O)CCl)c(C)[nH]c2c1` has an EC50 of 11.2 µM.
`COc1ccc(-c2cc(-c3ccccc3)c(C#N)c(S(C)(=O)=O)n2)cc1` was tested, and the EC50 was 5.18 µM.
`CCCN1C/C(=C/c2ccc3c(c2)OCO3)C(=O)/C(=C/c2ccc3c(c2)OCO3)C1` was tested, and the EC50 was 7.78 µM.
With `C/C(=N\NC(=O)c1cccc2ccccc12)c1ccccn1` the EC50 was 3.22 µM.
In the case of `Cc1ccc(CS(=O)(=O)c2ncc(Cl)c(C(=O)Nc3ccc(OC(F)F)cc3)n2)cc1`, the EC50 is reported as > 80 µM (inactive).
In the case of `Cc1cc(C(=O)CCl)c(C)n1CCc1ccc(F)cc1`, the EC50 is reported as 7.77 µM.
`CC(=O)/C(=N\Nc1ccc(Cl)cc1Cl)Sc1cccc2cccnc12` gave an EC50 of 3.26 µM.
For `COc1ccc(/C=C\c2nc(=O)c3ccccc3o2)cc1`, the EC50 was 8.46 µM.
`COc1ccc(-n2nc(C#N)c(Cl)cc2=O)cc1` was tested, and the EC50 was 3.23 µM.
In the case of `Clc1ccc(-n2nnnc2Sc2ncnc3sccc23)cc1`, the EC50 is reported as > 80 µM (inactive).
`Oc1ccc(/C=N/Nc2cc(N3CCCC3)nc(N3CCCC3)n2)cc1O` showed an EC50 of 13.2 µM.
In the case of `COC(=O)c1cc(=O)n(CCc2ccc(OC)cc2)c(=Nc2ccc(F)c(Cl)c2)s1`, the EC50 is reported as “inactive”.
Work on `COc1ccccc1N=Cc1c(O)c2ccccc2oc1=O` yielded an EC50 of 12.5 µM.
`COC(=O)c1cc(=O)n(Cc2ccco2)c(=Nc2ccc(F)c(Cl)c2)s1` gave an EC50 of 16.8 µM.
Work on `O=C1NC(=O)N(c2ccccc2)C(=O)/C1=C/C=C/c1ccco1` yielded an EC50 of 9.82 µM.
For `O=[N+]([O-])c1cc(-c2ncccn2)c([N+](=O)[O-])s1`, the EC50 was 7.51 µM.
Compound `O=C(/C(=C/c1cccc(Cl)c1)c1nc2ccccc2[nH]1)c1ccccc1` has an EC50 of 6.66 µM.
Work on `Cc1cc(C(=O)c2ccc(C(C)(C)C)cc2)c(NC(=O)CCl)s1` yielded an EC50 of 12.4 µM.
With `N#CC12COC3(CCCCC3C1(C#N)C#N)OC2=N` (stereo unspecified) the EC50 was > 80 µM (inactive).
For `O=C(c1ccc(Br)cc1)C(CN1CCOCC1)c1ccccc1` (stereo unspecified), the EC50 was 8.78 µM.
Work on `Cc1ccc(-c2cc(-c3ccc(C)cc3)[n+](-c3ccccc3)c(-c3ccc(C)cc3)c2)cc1` yielded an EC50 of 3.77 µM.
`O=C1NC(=O)C(=Cc2ccc(-c3ccc(Cl)cc3)o2)C(=O)N1` showed an EC50 of 18.2 µM.
In the case of `CC(C)c1ccc(/C=C(\c2nc3ccccc3[nH]2)S(=O)(=O)c2ccccc2)cc1`, the EC50 is reported as 9.49 µM.
With `O=C(Nc1ccc(NC(=O)c2sc3ccccc3c2Cl)cc1Cl)c1ccco1` the EC50 was “inactive”.
For `Cc1ccc(NC(=O)COc2ccc(/C=C3/SC(=Nc4ccccc4)N(Cc4cccnc4)C3=O)cc2)cc1`, the EC50 was “inactive”.
`COc1ccc(N=c2oc3ccc(OC)cc3cc2-c2nc3ccccc3[nH]2)cc1` gave an EC50 of 11.7 µM.
In the case of `Cc1ccc(NN2C(=O)C=C(c3ccccc3)C2=O)cc1`, the EC50 is reported as 14.5 µM.
In the case of `Cc1ccc(C(=O)C(C(=O)/C=C/c2ccccc2)=C2SCCCS2)cc1`, the EC50 is reported as 14.6 µM.
Compound `O=C(N/N=C/c1cccc2cccnc12)c1ccccc1O` has an EC50 of 18.1 µM.
`O=C(/C=C/Sc1ccccc1)c1ccc(Cl)cc1` was tested, and the EC50 was 10.6 µM.
For `O=C(/C=C1\NC2(CCCC2)Cc2ccccc21)C(=O)N/N=C/c1ccc(O)c(O)c1`, the EC50 was 9.4 µM.
Work on `CCc1ccc2nc(N(CCCN(C)C)C(=O)c3ccc(S(=O)(=O)N(C)C4CCCCC4)cc3)sc2c1` yielded an EC50 of 10.6 µM.
Compound `O=C(Nc1ccc(N2CCOCC2)cc1)c1ccc([N+](=O)[O-])o1` has an EC50 of 4.64 µM.
In the case of `CCn1c(O)c(C2=c3ccccc3=NC2=O)c2cc(Br)ccc21`, the EC50 is reported as 15.4 µM.
`Oc1c(C(c2ccccc2Cl)N2CCCC2)ccc2cccnc12` (stereo unspecified) showed an EC50 of 5.76 µM.
`CC(C)(C)c1ccc(/C=C(\c2nc3ccccc3[nH]2)S(=O)(=O)c2ccccc2)cc1` was tested, and the EC50 was 7.17 µM.
With `CSc1nnc(NC(=O)c2nc(S(=O)(=O)Cc3ccc(C)cc3)ncc2Cl)s1` the EC50 was 13.6 µM.
Compound `CCOC(=O)c1c(C)oc2c1c(C(c1ccccc1)N1CCOCC1)c(O)c1ccccc12` (stereo unspecified) has an EC50 of 18 µM.
`C=CCN=c1scc(C)n1/N=C/c1ccc(O)c(O)c1` gave an EC50 of 3.01 µM.
With `COc1ccc(/C=C/C(=O)c2ccc(C(=O)/C=C/c3ccc(OC)c(OC)c3)cc2)cc1OC` the EC50 was > 80 µM (inactive).
With `Oc1c(CN2CCN(c3ccc(F)cc3)CC2)cc(Cl)c2cccnc12` the EC50 was 14 µM.
